The structures appear in SMILES notation. Several values for one entry are separate records, joined by “and”; a condition that tells them apart may be missing. Equal entries are not always repeated. Entries after “also recorded” stand apart in the source; their conditions may differ. Where two headings read alike, the source gives them in different places.

Data set [1] can be described thus: Brain distribution in rats. Type of data set: in vivo, rat. The settings on record: i.g. 24.4 μmol/kg. The procedure: (§1) We quantified S1–S15 and Zuranolone using a UPLC-MS/MS (Agilent 1290 Infinity II UHPLC (Agilent Technologies, Santa Clara, CA, USA) coupled with a QTRAP 5500 MS/MS (ESI source) (SCIEX, Redwood City, CA, USA for MS/MS). The method assessed the content level of S9 and Zuranolone in microsome metabolism and in rat brain tissue and plasma. An ACQUITY UPLC Peptide BEH C18 column (Waters; 50 × 2.1 mm, 1.7 μm; 60 °C; Waters Corporation, Milford, MA, USA) was used with a mobile phase of 0.02% propionic acid in water (A) and acetonitrile (B). The gradient elution of the mobile phase B is carried out as follows: it is 10% from 0 to 0.5 min, 90% from 0.8 to 2.5 min, and 10% from 2.8 to 3.5 min, with a flow rate of 0.40 mL/min. Quantitative analysis was performed on a QTRAP 5500 MS (SCIEX, Redwood City, CA, USA) in positive ionization mode with MRM (multiple reaction monitoring), using progesterone-d9 as the internal standard. MRM transitions and parameters were optimized for each analyte, with collision energies of 25 V (S1–S15), 23 V (Zuranolone), and 30 V (IS), and declustering potentials of 80 V (S1–S15), 90 V (Zuranolone), and 180 V (IS). Other conditions were as follows: curtain gas 10 psi, collision gas ‘medium’, ion spray voltage 5500 V, temperature 500 °C, and ionization source gases 1 and 2 at 50 psi.
Zuranolone was solubilized in 5% DMSO with solutol HS 15 in saline. S9 was solubilized in 10% DMSA with 30% SBECD (Zibo Qianhui Biological Technology Co., Ltd., Zibo, China) in saline. After fasting for 12 h, rats (n = 6 per group) were administered Zuranolone and S9 intragastrically (i.g.) at a dose of 24.4 μmol/kg, and intravenously (i.v.) at 6.1 μmol/kg. Blood samples (200 μL) were collected into 1.5 mL tubes containing heparin at 15 min, 30 min, 1, 2, 3, 4, 6, 8, 12, 24, 48, and 96 h after i.g. or at 5, 15, 30 min, and 1, 2, 3, 4, 6, 8, 12, 24, 48, 96 h after i.v. Plasma was separated by centrifugation for 5 min (8000 rpm, 4 °C) and stored at −80 °C immediately.

The next data set deals with T1, α4β3δ GABAA receptor (Homo sapiens, UniProt P28472+P48169).
T1 construct: expressed in transfected cells; host or cells: CHO cells (transient expression)
As to the kind of experiment: Whole-cell electrophysiology of GABA-evoked currents, CHO cells. Type of data set: cell-based. The procedure:
The α1β2γ2 and α4β3δ GABAA receptor subtypes, representing synaptic and extrasynaptic subunit compositions in neurons, are widely utilized for screening new NAS drugs. In this study, a preliminary SAR study was conducted on a series of Zuranolone analogs using the LogP values predicted by ADMETlab3.0 software, recombinant human GABAA receptor cell lines, and in vitro liver microsome stability assays. The results are summarized in Table 1, Table 2, and Table 3, respectively.
The effects of Zuranolone and synthetic analogs on GABA-evoked currents were assessed in LTK cells stably expressing α1β2γ2 GABAA receptor subunits (n = 3) or CHO cells transiently expressing α4β3δ receptors (n = 3). Whole-cell mode recordings were conducted using the HEKA EPC-10 amplifier and analyzed with PatchMaster software (version 2x90, HEKA Elektronik, Lambrecht, Germany). High-throughput whole-cell recordings were performed using the Q-Patch method from Sophion. Test substances were dissolved in DMSO (dimethyl sulfoxide) to prepare 10 mmol/L stock solutions, then diluted with perfusion bath solution to concentrations ranging from 0.01 to 10 μmol/L. In this experiment, the effects of Zuranolone and its synthetic analogs on GABA-induced currents were examined in the presence of a submaximal agonist concentration at 1 μmol/L GABA (EC20). Cells were pre-incubated with increasing doses of test substances for 30 s, followed by 2 s of GABA stimulation, and currents were recorded. The maximum efficacy (Emax) of the GABAA receptor is expressed with the current induced by 1 μmol/L GABA taken as 100%, and the percentage after treatment with the test compound is calculated. The EC50 values are determined by fitting the three concentration–response curves recorded from three cells.

Data set [2] relates to PTZ-induced acute seizures. Kind of data set: Pentylenetetrazole (PTZ)-induced seizure test. The settings on record: rats; for effect on seizure incidence: oral 6, 12, 24 μmol/kg, PTZ 50 mg/kg; for latency to tonic seizures: n = 6. The format is in vivo, rat. As for the experimental part:
PTZ can trigger dose-dependent tonic seizures through its antagonistic effects on GABAA receptor function. To evaluate target engagement at GABAA receptors, Zuranolone and S9 were tested in a PTZ-induced acute seizure model in rats, which is widely used to assess GABAergic activity. Based on their pharmacokinetic study results, S9 or Zuranolone was administered orally at the same doses (6, 12, and 24 μmol/kg) 1 h prior to PTZ challenge.
We randomly divided rats into 7 groups (n = 6): three same-dose groups for both Zuranolone and S9 (6, 12, 24 μmol/kg) and a vehicle control group (30% SBECD). PTZ can selectively antagonize the GABAA receptors at a dose below 60 mg/kg, while higher doses lead to non-competitive antagonism of GABAA receptors and activation of NMDA receptors. Thus, a dose of 50 mg/kg was applied in this experiment. After intragastric administration of the test drugs or vehicle for 1 h, the animals were injected intraperitoneally with PTZ saline solution at 50 mg/kg. The rats were then placed in observation chambers to monitor the latency of clonic seizures (seizures lasting ≥3 s with LORR) and tonic seizures (the rigid extension of limbs, forming an angle of more than 90° with the body plane) within 1 h.

A short description of data set [3]: Liver microsome metabolic stability (RLM). Type of data set: in vitro ADME, rat. The arrangement: microsomal CLint at 1 μmol/L: unit not given here. Particulars: for half-life at 1 μmol/L: read-out: RLM T1/2. As for the experimental part: as §1
To evaluate the metabolic stability of compounds S1–S15 and Zuranolone in RLM and HLM, we designed the following in vitro liver microsome metabolism assay protocol. In a 1.5 mL centrifuge tube, sequentially add 173 μL of PBS (0.1 M, pH 7.4), 5 μL of liver microsomes (20 mg/mL), and 2 μL of the test compound (100 μmol/L). After thorough mixing, pre-incubate at 37 °C for 10 min. Subsequently, add 20 μL of NADPH to initiate the metabolism, with a parallel control without NADPH, to validate the background signal. Samples were collected at 0, 5, 10, 20, 30, and 60 min post-reaction initiation. At each designated time point, we quenched the reaction with ice-cold acetonitrile (600 μL). After centrifuging the mixture, we analyzed the supernatant using UPLC-MS/MS. For data analysis, the compound concentration at 0 min was set as 100%, with concentrations at subsequent time points expressed as residual percentages relative to the initial value, and the in vitro half-life (T1/2) and intrinsic clearance (CLint) were calculated.
For orientation: Liver microsomes are vesicles of endoplasmic reticulum, rich in cytochrome P450 enzymes.

T1 sequence (P48169 36-554): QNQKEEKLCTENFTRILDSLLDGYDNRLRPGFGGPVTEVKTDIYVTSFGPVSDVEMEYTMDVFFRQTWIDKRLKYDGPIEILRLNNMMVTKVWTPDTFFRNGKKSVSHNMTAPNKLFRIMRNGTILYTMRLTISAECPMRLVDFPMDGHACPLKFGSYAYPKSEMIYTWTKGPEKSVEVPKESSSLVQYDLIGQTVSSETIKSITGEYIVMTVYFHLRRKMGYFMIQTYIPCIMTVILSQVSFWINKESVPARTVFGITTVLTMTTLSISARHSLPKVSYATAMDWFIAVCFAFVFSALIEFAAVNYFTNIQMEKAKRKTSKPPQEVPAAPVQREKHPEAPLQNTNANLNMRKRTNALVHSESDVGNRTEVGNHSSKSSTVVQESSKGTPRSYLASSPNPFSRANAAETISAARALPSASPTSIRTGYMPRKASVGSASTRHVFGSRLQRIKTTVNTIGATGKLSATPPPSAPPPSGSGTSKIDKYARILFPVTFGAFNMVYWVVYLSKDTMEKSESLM
T1 sequence (P28472 26-473): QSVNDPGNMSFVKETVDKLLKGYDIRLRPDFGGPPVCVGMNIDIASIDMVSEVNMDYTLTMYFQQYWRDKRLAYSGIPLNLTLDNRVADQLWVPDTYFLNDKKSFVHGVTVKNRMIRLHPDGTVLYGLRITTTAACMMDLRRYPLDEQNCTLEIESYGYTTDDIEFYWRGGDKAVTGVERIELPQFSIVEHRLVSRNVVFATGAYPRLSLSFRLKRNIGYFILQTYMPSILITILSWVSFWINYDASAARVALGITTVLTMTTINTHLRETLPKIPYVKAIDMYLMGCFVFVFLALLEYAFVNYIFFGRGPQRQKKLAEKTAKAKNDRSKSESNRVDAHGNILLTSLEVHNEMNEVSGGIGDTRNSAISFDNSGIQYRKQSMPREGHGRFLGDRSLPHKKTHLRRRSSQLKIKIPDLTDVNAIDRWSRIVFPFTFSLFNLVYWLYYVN
T1 sequence (O14764 25-452 partner): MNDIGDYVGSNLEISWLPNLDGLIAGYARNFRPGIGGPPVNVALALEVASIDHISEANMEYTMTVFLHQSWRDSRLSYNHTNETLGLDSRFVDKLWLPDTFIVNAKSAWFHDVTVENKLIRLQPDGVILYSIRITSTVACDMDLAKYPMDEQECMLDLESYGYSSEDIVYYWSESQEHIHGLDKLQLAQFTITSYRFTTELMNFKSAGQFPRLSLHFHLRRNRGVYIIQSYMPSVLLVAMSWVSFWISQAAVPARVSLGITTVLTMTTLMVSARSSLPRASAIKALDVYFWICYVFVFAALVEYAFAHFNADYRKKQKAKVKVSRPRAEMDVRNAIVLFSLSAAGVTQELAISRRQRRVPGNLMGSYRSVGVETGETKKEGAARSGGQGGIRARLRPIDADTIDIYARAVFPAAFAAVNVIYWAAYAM

As to `C[C@@]1(O)CC[C@H]2[C@H](CC[C@@H]3[C@@H]2CC[C@]2(C)[C@@H](C(=O)Cn4cnn(-c5ccnc(OCC(F)(F)F)c5)c4=O)CC[C@@H]32)C1` [S9], the “AUCBrain 0–t” value in data set [1] was 30,969 nmol/kg·h and 30,969 ± 8450 nmol/kg·h. Besides, the “F AUCBrain 0–t S9/Zuranolone (relative brain bioavailability)” value in data set [1] was 324%. For the same compound, the Brain concentration in data set [1] (0.5 h) was 189 nmol/kg and 189 ± 30 nmol/kg; in data set [1] (2 h) it was 1895 ± 593 nmol/kg; in data set [1] (6 h), 2132 nmol/kg and 2132 ± 683 nmol/kg; in data set [1] (24 h), 175 nmol/kg and 175 ± 35 nmol/kg. Moreover, the EC50 at α4β3δ GABAA receptor (CHO cells, 1 μmol/L GABA (EC20), n = 3, read-out: α4β3δ EC50) came to 34 ± 10 nM. On α4β3δ GABAA receptor (CHO cells, current induced by 1 μmol/L GABA = 100%, n = 3), the Emax amounted to 967 ± 118%. Further, at α4β3δ GABAA receptor (extrasynaptic GABAA receptors), the “efficacy as % of that of Zuranolone” value came out at 71%. On α4β3δ GABAA receptor (extrasynaptic GABAA receptors), the “potency as % of that of Zuranolone” value is 270%. In addition, the “effect on seizure incidence” value in data set [2] is reported as “neither compound significantly affected seizure incidence”. Besides, the “fold longer T1/2 than Zuranolone” value in data set [3] (RLM) is on record as 4 fold. The “fold lower CLint than Zuranolone” value in data set [3] (RLM) stood at 6.5 fold. Further, the half-life at 1 μmol/L in data set [3] (pH 7.4, rat liver microsomes) stood at 3.1 h. For the same compound, the microsomal CLint at 1 μmol/L in data set [3] (pH 7.4, rat liver microsomes, read-out: RLM intrinsic clearance (CLint)) is 8000.
Take `C[C@@]1(O)CC[C@H]2[C@H](CC[C@@H]3[C@@H]2CC[C@]2(C)[C@@H](C(=O)Cn4cc(C#N)cn4)CC[C@@H]32)C1` [Zuranolone]: in data set [1], the “AUCBrain 0–t” value is 9549 nmol·h/kg and 9549 ± 2529 nmol·h/kg. The Brain concentration in data set [1] (0.5 h) is 3103 nmol/kg and 3103 ± 795 nmol/kg; in data set [1] (2 h) it was 2220 ± 574 nmol/kg; in data set [1] (6 h) it was 193 nmol/kg and 193 ± 56 nmol/kg; in data set [1] (24 h) it was “below the quantification limit (BQL); also recorded: BQL ^b”. Further, at α4β3δ GABAA receptor, the EC50 was 93 ± 10 nM. Besides, the “latency to tonic seizures” value in data set [2] (oral 12 μmol/kg 1 h before PTZ 50 mg/kg i.p.) was 1748.0 ± 555.0 s; in data set [2] (oral 24 μmol/kg 1 h before PTZ 50 mg/kg i.p.), 2995.0 ± 430.6 s. Besides, the “effect on seizure incidence” value in data set [2] is “neither compound significantly affected seizure incidence”. Further, the half-life at 1 μmol/L in data set [3] (pH 7.4, rat liver microsomes) stood at 0.8 h.

As usually defined, the EC50 is the concentration that produces a half-maximal response. What is called Emax is the greatest response seen or fitted, relative to the assay's reference.

Values taken from PMC12073189, “Synthesis and Evaluation of a Novel Zuranolone Analog with High GABAA Receptor PAM Activity and Excellent Pharmacokinetic Profiles” (Molecules, 2025).
